# Laboratory results from patent US8334316B2, “Substituted organosulfur compounds and methods of using thereof” (ACEA Biosciences, Inc., priority 2004, dated 2012).
# Assay: Acute toxicity, single intravenous injection, LD50 (Bliss method) in Kunming mice
# Assay type: in vivo
# Description: To evaluate the in vivo acute, intravenous toxicity of DBTS and ACEA100108 (a derivative of DBTS, see Table 33), the experiments were performed in non-tumor bearing, normal Kunming mice by monitoring the acute response of mice to a single dose of DBTS or ACEA100108 via intravenous injection (i.v.). The number of death for the treated mice was monitored and recorded. LD50 values for these compounds were calculated. Details of the study are provided below.
# The experiments to test DBTS and ACEA100108 acute toxicity were performed in mice. The test mice were randomly divided into six groups (five dosing groups and one control group). Each group contained 20 Kunming strain mice, and among them, 50% were male and 50% were female. After administration of a single dose of DBTS or ACEA100108 via intravenous injection (i.v.), the acute response to DBTS or ACEA100108 compound, and the death of the treated mice during the first two weeks were monitored and recorded. The LD50 value was calculated using the Bliss method.
# Materials and Method. The test chemical compound were DBTS and ACEA100108, which were dissolved into hydrogenated castor oil in the pre-warmed water bath and made as a 20 mg/ml solution. The solution was further diluted to desired experiment concentrations with the normal saline. The administration volume was 0.5 ml i.v. per mouse and the injection speed was 0.5 ml/0.5 min.
# The experimental mice were Kunming strain, provided by the Experimental Animal Department, Shanghai Pharmaceutical Industry Institute. The certificate number of the facility was Animal Facility Certification Number 107. The average weight of the mice was 18-20 gram. Each test group contained 20 Kunming strain mice, and among them, 10 mice were male and 10 mice were female. […] The mice in the control group were only given the same volume of the solvent, which were diluted hydrogenated castor oil. All the testing mice were given a single intravenous injection of DBTS, ACEA100108, or the solvent that served as the control at the injection speed of 0.5 ml/0.5 min. The acute response to DBTS, ACEA100108 or the solvent immediately after the administration, as well as weight change, and the death within the first two weeks of the administration were monitored and recorded. The intravenous injection LD50 values in mice were calculated using the Bliss method.
# [1] = 50% male, 50% female, 163.8 mg/kg, 20 animals
# [2] = 50% male, 50% female, 204.8 mg/kg, 20 animals
# [3] = 50% male, 50% female, 256 mg/kg, 20 animals
# [4] = 50% male, 50% female, 320 mg/kg, 20 animals
# [5] = 50% male, 50% female, 400 mg/kg, 20 animals
# [6] = 50% male, 50% female, 500 mg/kg, 20 animals
# [7] = Female, 163.8 mg/kg, 10 animals
# [8] = Female, 204.8 mg/kg, 10 animals
structure (smiles),measurement,setting,value
"Fc1ccc(CSSSCc2ccc(F)cc2)cc1 [ACEA100108, Di(p-fluorobenzyl)trisulfide]",Dead animals on day 1 after the single intravenous injection,[1],0
same,Dead animals on day 2 after the single intravenous injection,[1],0
same,Dead animals on day 3 after the single intravenous injection,[1],0
same,Dead animals on day 4 after the single intravenous injection,[1],0
same,Dead animals on day 5 after the single intravenous injection,[1],0
same,Dead animals on day 6 after the single intravenous injection,[1],0
same,Dead animals on day 7 after the single intravenous injection,[1],0
same,Dead animals on day 8 after the single intravenous injection,[1],0
same,Dead animals on day 9 after the single intravenous injection,[1],0
same,Dead animals on days 10-14 after the single intravenous injection,[1],0 - - - 0
same,Percentage of dead animals,[1],0%
same,Dead animals on day 1 after the single intravenous injection,[2],0
same,Dead animals on day 2 after the single intravenous injection,[2],0
same,Dead animals on day 3 after the single intravenous injection,[2],1
same,Dead animals on day 4 after the single intravenous injection,[2],0
same,Dead animals on day 5 after the single intravenous injection,[2],0
same,Dead animals on day 6 after the single intravenous injection,[2],0
same,Dead animals on day 7 after the single intravenous injection,[2],0
same,Dead animals on day 8 after the single intravenous injection,[2],0
same,Dead animals on day 9 after the single intravenous injection,[2],0
same,Dead animals on days 10-14 after the single intravenous injection,[2],0 - - - 0
same,Percentage of dead animals,[2],5%
same,Dead animals on day 1 after the single intravenous injection,[3],0
same,Dead animals on day 2 after the single intravenous injection,[3],4
same,Dead animals on day 3 after the single intravenous injection,[3],0
same,Dead animals on day 4 after the single intravenous injection,[3],2
same,Dead animals on day 5 after the single intravenous injection,[3],0
same,Dead animals on day 6 after the single intravenous injection,[3],0
same,Dead animals on day 7 after the single intravenous injection,[3],0
same,Dead animals on day 8 after the single intravenous injection,[3],0
same,Dead animals on day 9 after the single intravenous injection,[3],0
same,Dead animals on days 10-14 after the single intravenous injection,[3],0 - - - 0
same,Percentage of dead animals,[3],30%
same,Dead animals on day 2 after the single intravenous injection,[4],2
same,Dead animals on day 3 after the single intravenous injection,[4],5
same,Dead animals on day 4 after the single intravenous injection,[4],2
same,Dead animals on day 5 after the single intravenous injection,[4],0
same,Dead animals on day 6 after the single intravenous injection,[4],0
same,Dead animals on day 7 after the single intravenous injection,[4],0
same,Dead animals on day 8 after the single intravenous injection,[4],0
same,Dead animals on day 9 after the single intravenous injection,[4],0
same,Dead animals on days 10-14 after the single intravenous injection,[4],0 - - - 0
same,Percentage of dead animals,[4],45%
same,Dead animals on day 2 after the single intravenous injection,[5],8
same,Dead animals on day 3 after the single intravenous injection,[5],5
same,Dead animals on day 4 after the single intravenous injection,[5],0
same,Dead animals on day 5 after the single intravenous injection,[5],2
same,Dead animals on day 6 after the single intravenous injection,[5],0
same,Dead animals on day 7 after the single intravenous injection,[5],0
same,Dead animals on day 8 after the single intravenous injection,[5],0
same,Dead animals on day 9 after the single intravenous injection,[5],0
same,Dead animals on days 10-14 after the single intravenous injection,[5],0 - - - 0
same,Percentage of dead animals,[5],75%
same,Dead animals on day 1 after the single intravenous injection,[6],20
same,Dead animals on day 2 after the single intravenous injection,[6],0
same,Dead animals on day 3 after the single intravenous injection,[6],0
same,Dead animals on day 4 after the single intravenous injection,[6],0
same,Dead animals on day 5 after the single intravenous injection,[6],0
same,Dead animals on day 6 after the single intravenous injection,[6],0
same,Dead animals on day 7 after the single intravenous injection,[6],0
same,Dead animals on day 8 after the single intravenous injection,[6],0
same,Dead animals on day 9 after the single intravenous injection,[6],0
same,Dead animals on days 10-14 after the single intravenous injection,[6],0 - - - 0
same,Percentage of dead animals,[6],100%
same,Dead animals on day 1 after the single intravenous injection,[7],0
same,Dead animals on day 2 after the single intravenous injection,[7],0
same,Dead animals on day 3 after the single intravenous injection,[7],0
same,Dead animals on day 4 after the single intravenous injection,[7],0
same,Dead animals on day 5 after the single intravenous injection,[7],0
same,Dead animals on day 6 after the single intravenous injection,[7],0
same,Dead animals on day 7 after the single intravenous injection,[7],0
same,Dead animals on day 8 after the single intravenous injection,[7],0
same,Dead animals on day 9 after the single intravenous injection,[7],0
same,Dead animals on days 10-14 after the single intravenous injection,[7],0 - - - 0
same,Percentage of dead animals,[7],0%
same,"Average animal weight, End","Female, 163.8 mg/kg, Beginning 19.6",24.2
same,Dead animals on day 1 after the single intravenous injection,[8],0
same,Dead animals on day 2 after the single intravenous injection,[8],0
same,Dead animals on day 3 after the single intravenous injection,[8],0
same,Dead animals on day 4 after the single intravenous injection,[8],0
same,Dead animals on day 5 after the single intravenous injection,[8],0
same,Dead animals on day 6 after the single intravenous injection,[8],0
same,Dead animals on day 7 after the single intravenous injection,[8],0
same,Dead animals on day 8 after the single intravenous injection,[8],0
same,Dead animals on day 9 after the single intravenous injection,[8],0
same,Dead animals on days 10-14 after the single intravenous injection,[8],0 - - - 0
same,Percentage of dead animals,[8],0%
same,"Average animal weight, End","Female, 204.8 mg/kg, Beginning 20.5",24.3
same,Dead animals on day 1 after the single intravenous injection,"Female, 256 mg/kg, 10 animals",0
same,Dead animals on day 2 after the single intravenous injection,"Female, 256 mg/kg, 10 animals",2
same,Dead animals on day 3 after the single intravenous injection,"Female, 256 mg/kg, 10 animals",0
same,Dead animals on day 4 after the single intravenous injection,"Female, 256 mg/kg, 10 animals",1
same,Dead animals on day 5 after the single intravenous injection,"Female, 256 mg/kg, 10 animals",0
same,Dead animals on day 6 after the single intravenous injection,"Female, 256 mg/kg, 10 animals",0
same,Dead animals on day 7 after the single intravenous injection,"Female, 256 mg/kg, 10 animals",0
same,Dead animals on day 8 after the single intravenous injection,"Female, 256 mg/kg, 10 animals",0
same,Dead animals on day 9 after the single intravenous injection,"Female, 256 mg/kg, 10 animals",0
same,Dead animals on days 10-14 after the single intravenous injection,"Female, 256 mg/kg, 10 animals",0 - - - 0
same,Percentage of dead animals,"Female, 256 mg/kg, 10 animals",30%
same,"Average animal weight, End","Female, 256 mg/kg, Beginning 20.1",24.6
same,Dead animals on day 1 after the single intravenous injection,"Female, 320 mg/kg, 10 animals",2
same,Dead animals on day 2 after the single intravenous injection,"Female, 320 mg/kg, 10 animals",2
same,Dead animals on day 3 after the single intravenous injection,"Female, 320 mg/kg, 10 animals",1
same,Dead animals on day 4 after the single intravenous injection,"Female, 320 mg/kg, 10 animals",0
same,Dead animals on day 5 after the single intravenous injection,"Female, 320 mg/kg, 10 animals",0
same,Dead animals on day 6 after the single intravenous injection,"Female, 320 mg/kg, 10 animals",0
same,Dead animals on day 7 after the single intravenous injection,"Female, 320 mg/kg, 10 animals",0
